Experimental data taken from US20190336496A1, “SELECTIVE BCL-2 INHIBITORS IN COMBINATION WITH AN ANTI-PD-1 OR AN ANTI-PD-L1 ANTIBODY FOR THE TREATMENT OF CANCERS” (AbbVie Inc., priority 2018, published 2019).

Columns and labels:
[1] = system: CD4 T-cells co-cultured with MoDCs; assay: Mixed lymphocyte reaction (MLR) assay; type: cell-based, human
Procedure: Mixed Lymphocyte Reaction (MLR) assay was used to examine venetoclax effect on T-cell function in response to immune stimulation. Monocytic-derived dendritic cells (MoDCs) were generated from fresh human blood. PBMCs were isolated using a Ficoll gradient. The PBMCs were allowed to adhere for 2 hours. After 2 hours, cells in suspension were removed. Fresh AIM V™ medium (ThermoFisher cat. #12055091) supplemented with granulocyte-macrophage colony-stimulating factor (GM-CSF, 80 ng/mL) and IL-4 (50 ng/mL) was added to the culture. After 5 days, the MoDCs were stimulated with IL-1α and TNF-α (0.2 ng/mL each) for 48 hours to increase major histocompatibility complex class II molecules (MHCII) expression. These activated MoDCs were then co-cultured with CD4 T-cells (Biospecialty Corp.) at a ratio of 10:1 (T-cells:MoDCs) in a mixed lymphocyte reaction (MLR). The cells were treated with control IgG (Isotype) or anti-PD-1 antibody (nivolumab or ABBV-181 along with either dimethyl sulfoxide (DMSO) or BCL-2 inhibitors venetoclax (Compound (I)) or Compounds (II) or (III). Antibodies were added at 10 μg/mL and the compound concentrations of venetoclax were as indicated in FIG. 11. The MLR was cultured for 5 days, after which the cells were analyzed by flow cytometry using an LSRFortessa™ X-20 instrument (BD Biosciences) to determine cell number and functional cytokine (IFNγ) responses.

CMV-positive CD8 T cells = assay: CMV specific CD8 T cell response; type: cell-based, human; conditions: overnight (12-14 hours) incubation
Text: The cytomegalovirus (CMV) specific assay was used to evaluate the effects of venetoclax on antigen-experienced CD8 T cells. This assay used CMV) peptide pp65 ([…], SEQ ID NO: 53) to stimulate CMV-positive CD8 T cells, and MART ([…]) peptide as a negative control. Human CMV-positive CD8 T cells and CMV peptide pp65 were purchased from Astarte Biologics and MART peptide as purchased from Genscript. 2×10^5 CMV-positive CD8 T cells were stimulated with 2×10^5 CMV pp65 peptide or MART peptide loaded T2 cells (2.5 μg/ml of peptide) with brefeldin-A in RPMI media supplemented with 10% fetal bovine serum (FBS). For measuring the IFNγ secretion in the supernatant, CMV+ CD8 T cells were activated with CMV pp65 peptide or MART peptide loaded T2 cells and incubated with venetoclax without brefeldin-A in RPMI media supplemented with 10% fetal bovine serum (FBS). […] Cells were analyzed using an LSRFortessa™ X-20 instrument (BD Biosciences). The secreted IFNγ in supernatant was measured by ELISA.
CMV+ CD8 T cells were activated by CMV pp65 peptide ([…]) loaded on T2 cells and the effect of venetoclax on the function of these cells was assessed by measuring intra-cellular and secreted IFNγ (flow cytometry and ELISA as described above). […]

MC38 tumors = assay: MC38 model in immune deficient SCID mice; type: in vivo, mouse
Procedure: All experiments were conducted in compliance with the National Institutes of Health Guide for Care and Use of Laboratory Animals guidelines in a facility accredited by the Association for the Assessment and Accreditation of Laboratory Animal Care (AAALAC). BALB/c, C57BL/6, CB6F1 (C57BL/6 bred with BALB/c) and SCID mice were obtained from Charles River (Wilmington, Mass.). SCID mice have severe combined immune deficiency (SCID) and are characterized by an absence of functional T- and B-cells.
To further test the direct effects of venetoclax on the immune cells, SCID mice were transplanted with MC38 cells and treated with vehicle or anti-PD-1/PD-L1/venetoclax as single agent and in combinations (FIGS. 12E and 12F).

## CC1(C)CCC(CN2CCN(c3ccc(C(=O)NS(=O)(=O)c4ccc(NCC5CCOCC5)c([N+](=O)[O-])c4)c(Oc4cnc5[nH]ccc5c4)c3)CC2)=C(c2ccc(Cl)cc2)C1 [Compound (I), venetoclax]
[1]; MLR 5 days
  IFNγ detected in the supernatant: same amount
[1]; MLR 5 days, with isotype control or anti-PD-1 antibody
  proportion of CD4+ T-cells that produce IFNγ: increase
[1]; MLR cultured 5 days, antibodies at 10 μg/mL
  number of CD4+ T-cells: reduced
[1]; MLR, BCL-2 inhibitors at 1 μM
  CD3+ T cell numbers: declined comparably
  production of IFNγ (secreted): not antagonized
  proportion of CD3+ T-cells that produce IFNγ: increase
CMV-positive CD8 T cells
  number of CD8 T cells: reduced
MC38 tumors
  anti-tumor efficacy / tumor growth in SCID mice: did not show anti-tumor efficacy
